In patent US8030443B2, “Squamous cell carcinoma antigen-derived peptide binding to HLA-A24 molecule” (Kurume University, priority 2005, dated 2011):

Test system: peptide-specific IgG in sera of cancer patients and healthy donors
Assay: Measurement of anti-peptide IgG in plasma by LUMINEX multiplexed flow cytometric assay
Format: binding, human
Outline: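 Plasma diluted 1/100 incubated with peptide-coupled colour-coded beads 2 h at RT, then biotinylated goat anti-human IgG (γ-chain) 1 h and streptavidin-PE 30 min; fluorescence read by multiplexed flow cytometry, >100 counted significant. Specificity checked by three rounds of absorption on corresponding versus irrelevant SCCA peptide.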

Sequence: KFMFDLFQQF (SCCA 10-19 peptide) [SCCA-derived peptide, position 10-19]
- Total: healthy donors with significant peptide-reactive IgG / donors tested (10 healthy donors, significant when fluorescence intensity exceeded 100 at 1/100 dilution): 1/10
- Total: cancer patients with significant peptide-reactive IgG / patients tested (71 cancer patients, significant when fluorescence intensity exceeded 100 at 1/100 dilution): 12/71
- Fluorescence intesity (serum of Breast Ca. patient #36, 1:100 dilution): 66
- Fluorescence intesity (serum of Breast Ca. patient #37, 1:100 dilution): 0
- Fluorescence intesity (serum of Breast Ca. patient #38, 1:100 dilution): 27
- Fluorescence intesity (serum of Breast Ca. patient #39, 1:100 dilution): 38
- Fluorescence intesity (serum of Breast Ca. patient #40, 1:100 dilution): 0
- Fluorescence intesity (serum of Breast Ca. patient #41, 1:100 dilution): 201
- Fluorescence intesity (serum of Breast Ca. patient #42, 1:100 dilution): 0
- Fluorescence intesity (serum of Breast Ca. patient #43, 1:100 dilution): 44
- Fluorescence intesity (serum of Breast Ca. patient #44, 1:100 dilution): 18
- Fluorescence intesity (serum of Breast Ca. patient #45, 1:100 dilution): 55
- Fluorescence intesity (serum of Colon Ca. patient #66, 1:100 dilution): 5
- Fluorescence intesity (serum of Colon Ca. patient #67, 1:100 dilution): 79
- Fluorescence intesity (serum of Colon Ca. patient #68, 1:100 dilution): 0
- Fluorescence intesity (serum of Colon Ca. patient #69, 1:100 dilution): 2
- Fluorescence intesity (serum of Colon Ca. patient #70, 1:100 dilution): 17
- Fluorescence intesity (serum of Colon Ca. patient #71, 1:100 dilution): 6
- Fluorescence intesity (serum of Gastric Ca. patient #56, 1:100 dilution): 38
- Fluorescence intesity (serum of Gastric Ca. patient #57, 1:100 dilution): 11
- Fluorescence intesity (serum of Gastric Ca. patient #58, 1:100 dilution): 0
- Fluorescence intesity (serum of Gastric Ca. patient #59, 1:100 dilution): 177
- Fluorescence intesity (serum of Gastric Ca. patient #60, 1:100 dilution): 4
- Fluorescence intesity (serum of Gastric Ca. patient #61, 1:100 dilution): 81
- Fluorescence intesity (serum of Gastric Ca. patient #62, 1:100 dilution): 0
- Fluorescence intesity (serum of Gastric Ca. patient #63, 1:100 dilution): 0
- Fluorescence intesity (serum of Gastric Ca. patient #64, 1:100 dilution): 9
- Fluorescence intesity (serum of Gastric Ca. patient #65, 1:100 dilution): 0
- Fluorescence intesity (serum of Healthy Donor #1, 1:100 dilution): 0
- Fluorescence intesity (serum of Healthy Donor #2, 1:100 dilution): 68
- Fluorescence intesity (serum of Healthy Donor #3, 1:100 dilution): 0
- Fluorescence intesity (serum of Healthy Donor #4, 1:100 dilution): 0
- Fluorescence intesity (serum of Healthy Donor #5, 1:100 dilution): 8
- Fluorescence intesity (serum of Healthy Donor #6, 1:100 dilution): 0
- Fluorescence intesity (serum of Healthy Donor #7, 1:100 dilution): 0
- Fluorescence intesity (serum of Healthy Donor #8, 1:100 dilution): 345
- Fluorescence intesity (serum of Healthy Donor #9, 1:100 dilution): 34
- Fluorescence intesity (serum of Healthy Donor #10, 1:100 dilution): 0
- Fluorescence intesity (serum of Pancreas Ca. patient #46, 1:100 dilution): 0
- Fluorescence intesity (serum of Pancreas Ca. patient #47, 1:100 dilution): 12
- Fluorescence intesity (serum of Pancreas Ca. patient #48, 1:100 dilution): 206
- Fluorescence intesity (serum of Pancreas Ca. patient #49, 1:100 dilution): 0
- Fluorescence intesity (serum of Pancreas Ca. patient #50, 1:100 dilution): 311
- Fluorescence intesity (serum of Pancreas Ca. patient #51, 1:100 dilution): 0
- Fluorescence intesity (serum of Pancreas Ca. patient #52, 1:100 dilution): 172
- Fluorescence intesity (serum of Pancreas Ca. patient #53, 1:100 dilution): 0
- Fluorescence intesity (serum of Pancreas Ca. patient #54, 1:100 dilution): 11
- Fluorescence intesity (serum of Pancreas Ca. patient #55, 1:100 dilution): 0
- Fluorescence intesity (serum of Uterine cervical Ca. patient #1, 1:100 dilution): 25
- Fluorescence intesity (serum of Uterine cervical Ca. patient #2, 1:100 dilution): 21
- Fluorescence intesity (serum of Uterine cervical Ca. patient #3, 1:100 dilution): 11
- Fluorescence intesity (serum of Uterine cervical Ca. patient #4, 1:100 dilution): 5
- Fluorescence intesity (serum of Uterine cervical Ca. patient #5, 1:100 dilution): 14
- Fluorescence intesity (serum of Uterine cervical Ca. patient #6, 1:100 dilution): 786
- Fluorescence intesity (serum of Uterine cervical Ca. patient #7, 1:100 dilution): 14
- Fluorescence intesity (serum of Uterine cervical Ca. patient #8, 1:100 dilution): 38
- Fluorescence intesity (serum of Uterine cervical Ca. patient #9, 1:100 dilution): 76
- Fluorescence intesity (serum of Uterine cervical Ca. patient #10, 1:100 dilution): 16
- Fluorescence intesity (serum of Uterine cervical Ca. patient #11, 1:100 dilution): 21
- Fluorescence intesity (serum of Uterine cervical Ca. patient #12, 1:100 dilution): 41
- Fluorescence intesity (serum of Uterine cervical Ca. patient #13, 1:100 dilution): 22
- Fluorescence intesity (serum of Uterine cervical Ca. patient #14, 1:100 dilution): 22
- Fluorescence intesity (serum of Uterine cervical Ca. patient #15, 1:100 dilution): 154
- Fluorescence intesity (serum of Uterine cervical Ca. patient #16, 1:100 dilution): 225
- Fluorescence intesity (serum of Uterine cervical Ca. patient #17, 1:100 dilution): 50
- Fluorescence intesity (serum of Uterine cervical Ca. patient #18, 1:100 dilution): 45
- Fluorescence intesity (serum of Uterine cervical Ca. patient #19, 1:100 dilution): 67
- Fluorescence intesity (serum of Uterine cervical Ca. patient #20, 1:100 dilution): 107
- Fluorescence intesity (serum of Uterine cervical Ca. patient #21, 1:100 dilution): 22
- Fluorescence intesity (serum of Uterine cervical Ca. patient #22, 1:100 dilution): 19
- Fluorescence intesity (serum of Uterine cervical Ca. patient #23, 1:100 dilution): 78
- Fluorescence intesity (serum of Uterine cervical Ca. patient #24, 1:100 dilution): 2277
- Fluorescence intesity (serum of Uterine cervical Ca. patient #25, 1:100 dilution): 19
- Fluorescence intesity (serum of Uterine cervical Ca. patient #26, 1:100 dilution): 88
- Fluorescence intesity (serum of Uterine cervical Ca. patient #27, 1:100 dilution): 33
- Fluorescence intesity (serum of Uterine cervical Ca. patient #28, 1:100 dilution): 228
- Fluorescence intesity (serum of Uterine cervical Ca. patient #29, 1:100 dilution): 15
- Fluorescence intesity (serum of Uterine cervical Ca. patient #30, 1:100 dilution): 44
- Fluorescence intesity (serum of Uterine cervical Ca. patient #31, 1:100 dilution): 107
- Fluorescence intesity (serum of Uterine cervical Ca. patient #32, 1:100 dilution): 21
- Fluorescence intesity (serum of Uterine cervical Ca. patient #33, 1:100 dilution): 92
- Fluorescence intesity (serum of Uterine cervical Ca. patient #34, 1:100 dilution): 17
- Fluorescence intesity (serum of Uterine cervical Ca. patient #35, 1:100 dilution): 17
